Source: patent publication US9359308B2, “Pyrazine kinase inhibitors” (Portola Pharmaceuticals, Inc., priority 2011, dated 2016)

What follows are compounds tested against T1, full length active recombinant SYK enzyme (Homo sapiens, UniProt P43405) (assay: Inhibition of Syk tyrosine phosphorylation activity (LANCE TR-FRET kinase assay)). Details: activity in the Syk assays, class symbols.
T1 construct: full length active recombinant SYK enzyme (Millipore, Calif.); purchased Millipore
Format: biochemical
Outline: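 1 nM full-length active recombinant SYK phosphorylated 550 nM biotin-DEEDYESP-OH with 100 μM ATP in 50 mM Tris pH 7.5, 5 mM MgCl2, 1 mM DTT and 3% DMSO for 1 h at room temperature. After EDTA quench, Eu-anti-phosphotyrosine/SA-APC TR-FRET was read after 1 h. IC50s came from non-linear regression.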

| SMILES | IC50 [nM] |
| --- | --- |
| NC(=O)c1ncc(N[C@@H]2CCCC[C@@H]2N)nc1Nc1snc2ncccc12 [Example 412, 5-((1R,2S)-2-aminocyclohexylamino)-3-(isothiazolo[3,4-b]pyridin-3-ylamino)pyrazine-2-carboxamide] | < 1 |
| NC(=O)c1ncc(N[C@@H]2CCCC[C@@H]2N)nc1Nc1cnn2ccccc12 [Example 413, 5-(((1R,2S)-2-aminocyclohexyl)amino)-3-(pyrazolo[1,5-a]pyridin-3-ylamino)pyrazine-2-carboxamide] | < 1 |
| NC(=O)c1ncc(N[C@@H]2CCCC[C@@H]2N)nc1N[C@H]1COc2ccccc2C1 [Example 415, 5-(((1R,2S)-2-aminocyclohexyl)amino)-3-((R)-chroman-3-ylamino)pyrazine-2-carboxamide] | 10 to 100 |
| NC(=O)c1ncc(N[C@@H]2CCCC[C@@H]2N)nc1N[C@@H]1COc2ccccc2C1 [Example 416, 5-(((1R,2S)-2-aminocyclohexyl)amino)-3-((S)-chroman-3-ylamino)pyrazine-2-carboxamide] | 100 to 1000 |
| NC(=O)c1ncc(N[C@@H]2CCCC[C@@H]2N)nc1Nc1cccnc1 [Example 417, 5-(((1R,2S)-2-aminocyclohexyl)amino)-3-(pyridin-3-ylamino)pyrazine-2-carboxamide] | < 1 |
| NC(=O)c1ncc(N[C@@H]2CCCC[C@@H]2N)nc1Nc1cncc(F)c1 [Example 418, 5-(((1R,2S)-2-aminocyclohexyl)amino)-3-((5-fluoropyridin-3-yl)amino)pyrazine-2-carboxamide] | 1 to 10 |
| NC(=O)c1ncc(N[C@@H]2CCCC[C@@H]2N)nc1Nc1cnc2cccnc2c1 [Example 419, 3-((1,5-naphthyridin-3-yl)amino)-5-(((1R,2S)-2-aminocyclohexyl)amino)pyrazine-2-carboxamide] | 1 to 10 |
| NC(=O)c1ncc(N[C@@H]2CCCC[C@@H]2N)nc1Nc1cnc2ncccc2c1 [Example 420, 3-((1,8-naphthyridin-3-yl)amino)-5-(((1R,2S)-2-aminocyclohexyl)amino)pyrazine-2-carboxamide] | 1 to 10 |
| CC[C@@H](Nc1cnc(C(N)=O)c(Nc2cnn3ccccc23)n1)C(N)=O [Example 421, (R)-5-((1-amino-1-oxobutan-2-yl)amino)-3-(pyrazolo[1,5-a]pyridin-3-ylamino)pyrazine-2-carboxamide] | 1 to 10 |
| NC(=O)c1ncc(N[C@@H]2CCCC[C@@H]2N)nc1Nc1cncc(-c2ncccn2)c1 [Example 422] | 1 to 10 |
| NC(=O)c1ncc(N[C@@H]2CCCC[C@@H]2N)nc1Nc1cc(-c2ncccn2)cc(-c2ncccn2)c1 [Example 423, 5-(((1R,2S)-2-aminocyclohexyl)amino)-3-((3,5-di(pyrimidin-2-yl)phenyl)amino)pyrazine-2-carboxamide] | 1 to 10 |
| NC(=O)c1ncc(N[C@@H]2CCCC[C@@H]2N)nc1Nc1cc(-n2nccn2)cc(-n2nccn2)c1 [Example 424, 5-(((1R,2S)-2-aminocyclohexyl)amino)-3-((3,5-di(2H-1,2,3-triazol-2-yl)phenyl)amino)pyrazine-2-carboxamide] | 1 to 10 |
| NC(=O)c1ncc(N[C@@H]2CCCC[C@@H]2N)nc1Nc1ccc2nccn2c1 [Example 425, 5-(((1R,2S)-2-aminocyclohexyl)amino)-3-(imidazo[1,2-a]pyridin-6-ylamino)pyrazine-2-carboxamide] | 1 to 10 |
| CC[C@@H](Nc1cnc(C(N)=O)c(Nc2ccc3nccn3c2)n1)C(N)=O [Example 426, (R)-5-((1-amino-1-oxobutan-2-yl)amino)-3-(imidazo[1,2-a]pyridin-6-ylamino)pyrazine-2-carboxamide] | 1 to 10 |

Further lines, results first:

| IC50 [nM] | SMILES |
| --- | --- |
| 1 to 10 | NC(=O)c1ncc(N[C@@H]2CCCC[C@@H]2N)nc1Nc1ccn2ccnc2c1 [Example 427, 5-(((1R,2S)-2-aminocyclohexyl)amino)-3-(imidazo[1,2-a]pyridin-7-ylamino)pyrazine-2-carboxamide] |
| < 1 | NC(=O)c1ncc(N[C@@H]2CCCC[C@@H]2N)nc1Nc1csc2ncccc12 [Example 428, 5-(((1R,2S)-2-aminocyclohexyl)amino)-3-(thieno[2,3-b]pyridin-3-ylamino)pyrazine-2-carboxamide] |
| 1 to 10 | NC(=O)c1ncc(N[C@@H]2CCCC[C@@H]2N)nc1Nc1cc(-n2ccnn2)cc(-n2nccn2)c1 [Example 429, 3-((3-(1H-1,2,3-triazol-1-yl)-5-(2H-1,2,3-triazol-2-yl)phenyl)amino)-5-(((1R,2S)-2-aminocyclohexyl)amino)pyrazine-2-carboxamide] |
| 10 to 100 | NC(=O)c1ncc(N[C@@H]2CCCC[C@@H]2N)nc1Nc1cnsc1 [Example 430, 5-(((1R,2S)-2-aminocyclohexyl)amino)-3-(isothiazol-4-ylamino)pyrazine-2-carboxamide] |
| 1 to 10 | NC(=O)c1ncc(N[C@@H]2CCCC[C@@H]2N)nc1Nc1cc(N2CCOCC2)cc(-n2cccn2)c1 [Example 431, 5-(((1R,2S)-2-aminocyclohexyl)amino)-3-((3-morpholino-5-(1H-pyrazol-1-yl)phenyl)amino)pyrazine-2-carboxamide] |
| 1 to 10 | NC(=O)c1ncc(N[C@@H]2CCCC[C@@H]2N)nc1Nc1cc(-n2ccnn2)cc(-n2ccnn2)c1 [Example 432, 5-(((1R,2S)-2-aminocyclohexyl)amino)-3-((3,5-di(1H-1,2,3-triazol-1-yl)phenyl)amino)pyrazine-2-carboxamide] |
| 1 to 10 | NC(=O)c1ncc(N[C@@H]2CCCC[C@@H]2N)nc1Nc1cnc2ccncc2c1 [Example 433, 3-((1,6-naphthyridin-3-yl)amino)-5-(((1R,2S)-2-aminocyclohexyl)amino)pyrazine-2-carboxamide] |
| 1 to 10 | NC(=O)c1ncc(N[C@@H]2CCCC[C@@H]2N)nc1Nc1cnc2scnc2c1 [Example 434, 5-(((1R,2S)-2-aminocyclohexyl)amino)-3-(thiazolo[5,4-b]pyridin-6-ylamino)pyrazine-2-carboxamide] |
| 1 to 10 | NC(=O)c1ncc(N[C@@H]2CCCC[C@@H]2N)nc1Nc1ccc2cccnc2c1 [Example 435, 5-(((1R,2S)-2-aminocyclohexyl)amino)-3-(quinolin-7-ylamino)pyrazine-2-carboxamide] |
| < 1 | NC(=O)c1ncc(N[C@@H]2CCCC[C@@H]2N)nc1Nc1cccc2ncccc12 [Example 436, 5-(((1R,2S)-2-aminocyclohexyl)amino)-3-(quinolin-5-ylamino)pyrazine-2-carboxamide] |
| 1 to 10 | NC(=O)c1ncc(N[C@@H]2CCCC[C@@H]2N)nc1Nc1ccnc2ncccc12 [Example 437, 3-((1,8-naphthyridin-4-yl)amino)-5-(((1R,2S)-2-aminocyclohexyl)amino)pyrazine-2-carboxamide] |
| 1 to 10 | CCC(=O)N1CCC(c2ccc(Nc3nc(N[C@@H]4CCCC[C@@H]4N)cnc3C(N)=O)cc2)CC1 [Example 438, 5-(((1R,2S)-2-aminocyclohexyl)amino)-3-((4-(1-propionylpiperidin-4-yl)phenyl)amino)pyrazine-2-carboxamide] |
| 1 to 10 | NC(=O)c1ncc(N[C@@H]2CCCC[C@@H]2N)nc1Nc1ccc(N2CCOCC2)c(F)c1 [Example 439, 5-(((1R,2S)-2-aminocyclohexyl)amino)-3-((3-fluoro-4-morpholinophenyl)amino)pyrazine-2-carboxamide] |
| 10 to 100 | NC(=O)c1ncc(N[C@@H]2CCCC[C@@H]2N)nc1Nc1ccc(-n2ccccc2=O)cc1 [Example 440, 5-(((1R,2S)-2-aminocyclohexyl)amino)-3-((4-(2-oxopyridin-1(2H)-yl)phenyl)amino)pyrazine-2-carboxamide] |
| 10 to 100 | NC(=O)c1ncc(N[C@@H]2CCCC[C@@H]2N)nc1Nc1ccc(N2CCCCC2=O)cc1 [Example 441, 5-(((1R,2S)-2-aminocyclohexyl)amino)-3-((4-(2-oxopiperidin-1-yl)phenyl)amino)pyrazine-2-carboxamide] |
| 10 to 100 | NC(=O)c1ncc(N[C@@H]2CCCC[C@@H]2N)nc1Nc1ccc(N2CCOCC2=O)cc1 [Example 442, 5-(((1R,2S)-2-aminocyclohexyl)amino)-3-((4-(3-oxomorpholino)phenyl)amino)pyrazine-2-carboxamide] |
| 10 to 100 | NC(=O)c1ncc(N[C@@H]2CCCC[C@@H]2N)nc1Nc1ccc(N2CCOCC2=O)c(F)c1 [Example 443, 5-(((1R,2S)-2-aminocyclohexyl)amino)-3-((3-fluoro-4-(3-oxomorpholino)phenyl)amino)pyrazine-2-carboxamide] |
| < 1 | NC(=O)c1ncc(N[C@@H]2CCCC[C@@H]2N)nc1Nc1cccc(-c2ncco2)c1 [Example 444, 5-(((1R,2S)-2-aminocyclohexyl)amino)-3-((3-(oxazol-2-yl)phenyl)amino)pyrazine-2-carboxamide] |
| 1 to 10 | NC(=O)c1ncc(N[C@@H]2CCCC[C@@H]2N)nc1Nc1ccc(-c2ncco2)cc1 [Example 445, 5-(((1R,2S)-2-aminocyclohexyl)amino)-3-((4-(oxazol-2-yl)phenyl)amino)pyrazine-2-carboxamide] |
| 1 to 10 | CC[C@@H](Nc1cnc(C(N)=O)c(Nc2ccc(-c3ncco3)cc2)n1)C(N)=O [Example 446] |
| 1 to 10 | NC(=O)c1ncc(N[C@@H]2CCCC(F)(F)[C@@H]2N)nc1Nc1cnn2ccccc12 [Example 447, 5-(((1R,2R)-2-amino-3,3-difluorocyclohexyl)amino)-3-(pyrazolo[1,5-a]pyridin-3-ylamino)pyrazine-2-carboxamide] |
